This is an account of results in PMC6270837, “Preparation and Biological Properties of Ring-Substituted Naphthalene-1-Carboxanilides” (Molecules, 2014).

Data set [1] is described as follows: Lipophilicity determination by RP-HPLC (capacity factor, log k). The settings on record: end-capped C18, isocratic MeOH 60%/H2O 40%. Format: physicochemical. As for the experimental part: Lipophilicity is a property that has a major effect on bioavailability, biotransformation as well as pharmacological activity, because drugs cross biological membranes through passive transport, which strongly depends on their lipophilicity. Lipophilicity of the studied compounds was determined by RP‑HPLC as capacity factor logarithm (log k). The procedure was performed under isocratic conditions with methanol as an organic modifier in the mobile phase using an end-capped non-polar C18 stationary RP column. The results of ring-substituted naphthalene-1-carboxanilides 1–8c are shown in Table 1 and illustrated in Figure 1. […] Lipophilicity was also calculated as log P using ACD/Percepta ver. 2012 (Advanced Chemistry Development, Inc., Toronto, ON, Canada).
A HPLC system Agilent 1200 equipped with DAD detector (Agilent, USA) was used. A chromatographic column Symmetry® C18 5 μm, 4.6 × 250 mm, Part No. WAT054275 (Waters Corp., Milford, MA, USA) was used. The HPLC separation process was monitored and evaluated by EZChrom Elite software ver. 3.3.2 (Agilent, USA). Isocratic elution by a mixture of MeOH p.a. (60%) and H2O-HPLC Mili-Q grade (40%) as a mobile phase was used. The total flow of the column was 1.0 mL/min, injection 20 μL, column temperature 40 °C, and sample temperature 10 °C. The detection wavelength 210 nm was chosen. The KI methanolic solution was used for the dead time (tD) determination. Retention times (tR) were measured in minutes. The capacity factors k were calculated according to formula k = (tR − tD)/tD, where tR is the retention time of the solute, whereas tD denotes the dead time obtained using an unretained analyte. Log k, calculated from the capacity factor k, is used as the lipophilicity index converted to log P scale.

Data set [2] concerns Mycobacterium avium subsp. paratuberculosis CIT03. Kind of data set: In vitro antimycobacterial evaluation (MIC/IC90, alamarBlue). Format: cell-based. The settings on record: for antimycobacterial activity relative to ciprofloxacin / antimycobacterial activity relative to rifampicin: M. avium subsp. paratuberculosis, comparison of MICs; for MIC: Mycobacterium avium. As for the experimental part:
The MIC/IC90 value is routinely and widely used in bacterial assays and is a standard detection limit according to the Clinical and Laboratory Standards Institute.
A well-characterized clinical isolate of Mycobacterium avium subsp. paratuberculosis (CIT03) was grown in Middlebrook broth (MB), supplemented with Oleic-Albumin-Dextrose-Catalase supplement (OADC, Becton, Dickinson and Comp., Franklin Lakes, NJ, USA) and mycobactin J (2 µg/mL). Identification of this isolate was performed using biochemical and molecular protocols. At log phase growth, a culture sample (10 mL) was centrifuged at 15,000 rpm/20 min using a bench top centrifuge (Model CR 4-12, Jouan Inc., Winchester, VA, USA). Following removal of the supernatant, the pellet was washed in fresh Middlebrook 7H9GC broth and re-suspended in fresh supplemented MB (10 mL). The turbidity was adjusted to match McFarland standard No. 1 (3 × 10^8 cfu) with MB broth. A further 1:20 dilution of the culture was then performed in MB broth. The antimicrobial susceptibility of the mycobacterial species was investigated in a 96-well plate format. In these experiments, sterile deionized water (300 µL) was added to all outer-perimeter wells of the plates to minimize evaporation of the medium in the test wells during incubation. Each evaluated compound (100 µL) was incubated with the mycobacterial species (100 µL). Dilutions of each compound were prepared in duplicate. For all synthesized compounds, final concentrations ranged from 1,000 µg/mL to 8 µg/mL. All compounds were prepared in DMSO and subsequent dilutions were made in supplemented MB. The plates were sealed with parafilm and incubated at 37 °C for 11 days.
Following incubation, a 10% addition of alamarBlue (AbD Serotec, Kidlington, UK) was mixed into each well and readings at 570 nm and 600 nm were taken, initially for background subtraction and subsequently after 24 h re-incubation. […] For non-interfering compounds, a blue colour in the well was interpreted as an absence of growth and a pink colour was scored as growth. Furthermore percent reduction of alamarBlue was calculated to generate quantitative data on cell viability during exposure to antimycobacterial compounds over a period of 5 days. The formula used to determine percent reduction of alamarBlue has been standardized for colorimetric analysis by Abd Serotec.
The MIC value is routinely and widely used in bacterial assays and is a standard detection limit according to the Clinical and Laboratory Standards Institute.
In general terms: Resazurin is reduced to fluorescent resorufin, in cell work by metabolically active cells.

For data set [3], the system named is human monocytic leukemia THP-1 cell line. Briefly: In vitro cytotoxicity assay (LDH). The settings on record: for LD50: human, 24 h; for lethal effect / toxicity on THP-1 cells: treatment with 30 μmol/L. As for the experimental part: Human monocytic leukemia THP-1 cells were obtained from the European Collection of Cell Cultures (ECACC, Salisbury, UK; Methods of characterization: DNA Fingerprinting (Multilocus probes) and isoenzyme analysis). These cells were routinely cultured in RPMI 1640 (Lonza, Verviers, Belgium) medium supplemented with 10% fetal bovine serum (FBS, Sigma-Aldrich, St. Louis, MO, USA), 2% L-glutamine, 1% penicillin and streptomycin (Lonza) at 37 °C with 5% CO2. Cells were passaged at approximately one-week intervals. Cells were routinely tested for the absence of mycoplasma (Hoechst 33258 staining method). The tested compounds were dissolved in DMSO (Sigma-Aldrich) and added in five increasing concentrations to the cell suspension in the culture medium. The maximum concentration of DMSO in the assays never exceeded 0.1%. Subsequently, the cells were incubated for 24 h at 37 °C with 5% CO2 to various compound concentrations ranging from […] in RPMI 1640 medium. Cell toxicity was determined using a Cytotoxicity Detection Kit^PLUS Lactate dehydrogenase (LDH) assay kit (Roche Diagnostics, Mannheim, Germany) according to the manufacturer’s instructions, as described previously. For LDH assays, cells were seeded into 96-well plates (5 × 10^4 cells/well in 100 μL culture medium) in triplicate in serum-free RPMI 1640 medium, and measurements at 492 nm wavelength (Synergy 2 Multi-Mode Microplate Reader, BioTek, Winooski, VT, USA) were taken 24 h after the treatment with tested compounds. The median lethal dose values, LD50, were deduced through the production of a dose-response curve. All data were evaluated using GraphPad Prism 5.00 software (GraphPad Software, San Diego, CA, USA).
LDH Test Principle: The LDH activity is determined by a coupled enzymatic reaction, whereby the tetrazolium salt INT is reduced to formazan. An increase in the amount of dead or plasma membrane damaged cells results in an increase of LDH enzyme activity in the culture supernatant. This increase in the amount of enzyme activity in the supernatant directly correlates to the amount of formazan formed during a limited time period.

The nature of another data set: physchem. To be noted: aqueous buffer, kinetic from dmso stock.
The test system of data set [4] is M. avium subsp. paratuberculosis. Briefly: MTT assay on mycobacteria. Format: cell-based, Mycobacterium avium subsp. paratuberculosis. The settings on record: lowest tested concentration 8 µg/mL (ca. 30 µmol/L), four hours of incubation. The procedure: Additionally, a standard MTT assay was performed on these same compounds. The MTT assay is a well-characterized method of assessing cell growth through measurement of respiration.
For the MTT assay, the same 96-well plate set up and incubation conditions listed above were used. After the incubation period, a 10% addition of MTT reagent was mixed into each well and incubated at 37 °C for 4 h. The reagent and media were then aspirated from the wells to which 50 µL DMSO was then added and plates were read at 550 nm.
For orientation: Formazan colour is commonly taken as a measure of viable cells.

Data set [5] deals with human monocytic leukemia THP-1 cell line. To be noted: THP-1 cells; assessed in this line formerly; cited from earlier work.
Data set [6] has as its system photosynthetic electron transport (PET) in isolated spinach chloroplasts. Kind of data set: Inhibition of photosynthetic electron transport (PET) in isolated spinach chloroplasts. Format: biochemical, Spinacia oleracea L. The settings on record: DCPIP photoreduction. The procedure:
The PET-inhibiting activity was expressed by IC50 value, i.e., compound concentration in mol/L causing 50% inhibition of PET.
Chloroplasts were prepared from spinach (Spinacia oleracea L.) according to Masarovicova and Kralova. The inhibition of photosynthetic electron transport (PET) in isolated spinach chloroplasts was determined spectrophotometrically (Genesys 6, Thermo Scientific, USA), using an artificial electron acceptor 2,6-dichlorophenol-indophenol (DCIPP) according to Kralova et al., and the rate of photosynthetic electron transport was monitored as a photoreduction of DCPIP. The measurements were carried out in phosphate buffer (0.02 mol/L, pH 7.2) containing sucrose (0.4 mol/L), MgCl2 (0.005 mol/L) and NaCl (0.015 mol/L). The chlorophyll content was 30 mg/L in these experiments and the samples were irradiated (~100 W/m^2 with 10 cm distance) with a halogen lamp (250 W) using a 4 cm water filter to prevent warming of the samples (suspension temperature 22 °C). The studied compounds were dissolved in DMSO due to their limited water solubility. […] The inhibitory efficiency of the studied compounds was expressed by IC50 values, i.e., by molar concentration of the compounds causing 50% decrease in the oxygen evolution rate relative to the untreated control.

Setting [7] is: 264 h, clinical isolate CIT03, 11 days at 37 °C, alamarBlue, MIC = 90% or greater reduction of growth, read-out: MAP MIC/IC90.
Where [8] appears, read: clinical isolate CIT03, read-out: MIC.
[9] abbreviates: clinical isolate CIT03, 11 days at 37 °C, alamarBlue, MIC = 90% or greater reduction of growth.

Molecules are shown by their SMILES. “Also recorded” adds a separate entry of the source. Like-named read-outs stand apart in the source and are kept apart here.

As a reminder, the solubility is how much of the substance goes into solution per volume. Take `COc1ccccc1NC(=O)c1cccc2ccccc12` [Compound 2a, N-(2-Methoxyphenyl)naphthalene-1-carboxamide]: in data set [1], the log k worked out at 0.8013. For the same compound, in data set [2], the “antimycobacterial activity relative to ciprofloxacin” value is recorded as “three-fold higher” and the “antimycobacterial activity relative to rifampicin” value is listed as “two-fold higher”. The MIC in data set [2] (setting [7]) came to 54 µM. Also, in data set [3], the LD50 was above 30 µmol/L and the “lethal effect / toxicity on THP-1 cells” value is reported as “did not lead to significant lethal effect; also recorded: insignificant toxicity”. The same compound registered a solubility in “physchem” of at most 30 µM.
In data set [1], `COc1cccc(NC(=O)c2cccc3ccccc23)c1` [Compound 2b, N-(3-Methoxyphenyl)naphthalene-1-carboxamide] gave a log k of 0.6087. For the same compound, in data set [2], the “antimycobacterial activity relative to ciprofloxacin” value was “three-fold higher” and the “antimycobacterial activity relative to rifampicin” value was “two-fold higher”. Moreover, the MIC in data set [2] (setting [7]) stood at 54 µM. Also, in data set [2] (setting [8]), the MIC turned out to be 15 µg/mL. The “MAP MIC/IC90” value in data set [2] (setting [9]) is 54 µmol/L. Besides, the “reduction in activity (MTT)” value in data set [4] is listed as “more than 80%”. In data set [3], the LD50 is above 30 µmol/L and the “lethal effect / toxicity on THP-1 cells” value is on record as “did not lead to significant lethal effect; also recorded: insignificant toxicity”. Also, the solubility in the data set “physchem” is at most 30 µM.
Consider `CC[C@@]1(O)C(=O)OCc2c1cc1n(c2=O)Cc2cc3ccccc3nc2-1` [camptothecin], for which, in data set [5], the LD50 was 0.16 ± 0.07 µmol/L.
Usually IC50 stands for the point on the concentration scale where inhibition reaches its midpoint. Read a low IC50 as higher potency. As to `Cc1cccc(NC(=O)c2cccc3ccccc23)c1` [Compound 3b, N-(3-Methylphenyl)naphthalene-1-carboxamide], the log k in data set [1] was found to be 0.7624. In data set [2], the “antimycobacterial activity relative to ciprofloxacin” value is recorded as “three-fold higher” and the “antimycobacterial activity relative to rifampicin” value is “two-fold higher”. Also, the MIC in data set [2] (setting [7]) turned out to be 57 µM. For the same compound, in data set [3], the LD50 was above 30 µmol/L and the “lethal effect / toxicity on THP-1 cells” value is given as “did not lead to significant lethal effect; also recorded: insignificant toxicity”. This compound returned a 50% inhibitory concentration (IC50) in data set [6] of 136 µM. In the data set “physchem”, this compound gave a solubility of at most 30 µM.
For `O=C(Nc1cccc(F)c1)c1cccc2ccccc12` [Compound 4b, N-(3-Fluorophenyl)naphthalene-1-carboxamide], the log k in data set [1] is on record as 0.7204. For the same compound, in data set [2], the “antimycobacterial activity relative to ciprofloxacin” value is recorded as “three-fold higher” and the “antimycobacterial activity relative to rifampicin” value was “two-fold higher”. In addition, the MIC in data set [2] (setting [7]) turned out to be 57 µM. Also, the MIC in data set [2] (setting [8]) worked out at 15 µg/mL. Further, the “MAP MIC/IC90” value in data set [2] (setting [9]) stood at 57 µmol/L. In data set [3], the LD50 is above 30 µmol/L and the “lethal effect / toxicity on THP-1 cells” value is listed as “did not lead to significant lethal effect; also recorded: insignificant toxicity”. In addition, the concentration for half-maximal inhibition (IC50) in data set [6] is 131 µM. In addition, the solubility in the data set “physchem” is at most 30 µM.
